Measurements from publication PMC11242993, “Evaluation of the Therapeutic Potential of Sulfonyl Urea Derivatives as Soluble Epoxide Hydrolase (sEH) Inhibitors” (Molecules, 2024).

Key:
[1] = test system: C57BL/6J male mice; experiment: Hot plate model; format: in vivo; settings: 10 mg/kg i.p.
Experimental: Thermal nociception in the hot plate test was assessed with a commercially available apparatus (Hotplate Analgesia Meter, Columbus Instruments) consisting of a metal plate to a constant temperature of 55.0 ± 0.1 °C. Mice were put into the hot plate testing instrument to adapt for at least 15 min. The device was connected to a manually operated timer that recorded the amount of time the mouse spent on the heated surface before showing signs of nociception (e.g., licked its paws or jumped), the cut-off time was 60 s. The baseline (basic pain threshold, the response was more than 25 s, and the jumping mice were excluded.) was calculated as the mean of three readings recorded before testing at intervals of 15 min. The time course of latency was then determined at 15, 30, 45, 60, 90, and 120 min after compound treatment. Data were analyzed as time-course curves of the percentage of maximum effect MPE% = (post drug latency − baseline latency) × 100/(cut-off time − baseline latency). C57BL/6J male mice obtained from The Jackson Laboratory (Bar Harbor, ME, USA) weighing 28 g were used for the hot plate test. Animal procedures were conducted following the rules and regulations of the Institutional Animal Care and Use Committee of the National Institute on Alcohol Abuse and Alcoholism (NIAAA) under the protocols of LPS-GK1.

[2] = test system: mice; experiment: LPS-induced acute lung injury (ALI) model; format: in vivo; settings: 10 mg/kg i.p.
Experimental: LPS-induced acute lung injury induced by a single oropharyngeal instillation of lipopolysaccharide (LPS) (50 µg/mouse) in 16-week-old mice as described previously. Briefly, LPS (L4391, MilliporeSigma, Burlington, MA, USA) was dissolved in sterile saline and administered at 50 µg/mouse in 40 µL after anesthesia induced by ketamine/xylazine. The mice were studied 24 h after LPS or saline instillation.
BALF was collected from anesthetized mice by lavaging lungs two times with 0.8 mL Hanks’ balanced salt solution without calcium and magnesium (HBSS) (Sigma-Aldrich, St. Louis, MI, USA). Supernatants were collected as BALF for further analyses.
The number of cells in the BALF was estimated using an automated cell counter, the Countess II FL cell counter (Thermo Fisher Scientific Inc., Waltham, MA, USA).
Albumin levels were measured by the Mouse Albumin Elisa Assay kit (Cat # E99-134), which was obtained from Bethyl Laboratories. BALF samples from the LPS group were diluted at a 1:2000 ratio.
Total protein in BALF samples was measured using the Pierce BCA protein assay kit (Cat # 23225) as detailed in the product manual (Thermo Fisher Scientific).
The right middle lobe was immediately placed in an RNA later solution and stored at −80 °C until the RNA extraction procedure. RNA extraction was performed using RNeasy Mini Kits from Qiagen (Valencia, CA, USA). One microgram of total RNA was reverse transcribed to cDNA using an iScript cDNA synthesis kit (Bio-Rad, Hercules, CA, USA). Expression of the target genes was quantified using gene-specific primers and PowerSYBRGreen master mix (Thermo Fisher Scientific) in a QuantStudio 3 Real-Time PCR instrument (Thermo Fisher Scientific). Predesigned mouse IL-6 (QT00098875), TNF-α (QT00104006), IL-1β (QT01048355), CXCL1 (QT00115647), CCL2 (QT00167832), CXCL3 (QT00151599) and CXCL9 (QT00097062) primers were purchased from Qiagen (Valencia, CA, USA). Fold changes in gene expression relative to the housekeeping gene TATA-Box Binding Protein (Tbp, QT00198443) were determined. Gene expression values were calculated based on the […] method.

Question: With `O=C(O)CCCCCCCCCCCNC(=O)NC12CC3CC(CC(C3)C1)C2` [AUDA, 12-(3-adamantan-1-ylureido)dodecanoic acid, reference compound] as the compound, how does the “analgesic effect in hot plate assay” value [1] read?
Answer: none of the sEH inhibitors, including AUDA, showed any analgesic effect

Question: And the “effect on LPS-induced increase in total protein in BALF” value [2]?
Answer: neither AUDA nor novel sEH inhibitors’ (4f and 4l) effect

Question: And the “number of cells in bronchoalveolar lavage (BAL)” value [2]?
Answer: similarly attenuated the number of cells in BAL

Question: What about the “LPS-induced lung gene expression of interleukin 1B (IL-1B)” value ([2]; qPCR) of the same compound?
Answer: attenuated

Question: And the “LPS-induced lung gene expression of interleukin 6 (IL-6)” value ([2]; qPCR)?
Answer: attenuated

Question: And the “lung gene expression of CXCL1” value ([2]; qPCR)?
Answer: similarly attenuated
